Measurements: US8703784B2, “Substituted pyrazolo[1,5-a]pyrido[3.2-e]pyrimidin-6-one inhibitors of mammalian target of rapamycin” (Merck Sharp & Dohme Corp., priority 2010, dated 2014)

The compounds below were run against mTOR enzyme (Homo sapiens, UniProt P42345) (assay: mTOR Kinase Assay). Details: 5 μM ATP, 0.1 μM GSTS6K substrate.
Type: biochemical
Experimental: The mTOR assay buffer contains 10 mM hepes (pH 7.4), 50 mM NaCl, 100 μg/ml BSA, 50 mM B-glycerophosphate, 10 mM MnCl2 and 0.5 mM DTT. 20 ng of mTOR enzyme is preincubated with the compound for 10 minutes. 5 μM ATP and 0.1 μM GSTS6K is added. The reaction is incubated for one hour at 30° C. Anti phospho p70S6K (about 1.7 ng/well) and anti GSTXL665 (1:1 Ratio with the substrate GSTS6K) are added after incubating. The plates are read at least 2 hours after adding the anti phospho p70S6K and the anti GSTXL665.
Dose-response curves were plotted from inhibition data generated, each in duplicate, from 8 point serial dilutions of inhibitory compounds. Concentration of compound was plotted against % kinase activity, calculated by CPM of treated samples divided by CPM of untreated samples. To generate IC50 values, the dose-response curves were then fitted to a standard sigmoidal curve and IC50 values were derived by nonlinear regression analysis.

| Compound | IC50 [nM] |
| --- | --- |
| O=C1CCNc2c1c(C1CC3CCC(C1)N3C(=O)c1nnc[nH]1)nc1c(-c3ccc(-c4ccccc4)nc3)cnn21 (stereo not drawn) [Example 1, 5-(8-(4H-1,2,4-triazole-3-carbonyl)-8-azabicyclo[3.2.1]octan-3-yl)-3-(6-phenylpyridin-3-yl)-8,9-dihydropyrazolo[1,5-a]pyrido[3,2-e]pyrimidin-6(7H)-one] | < 10 |
| O=C(c1nnc[nH]1)N1C2CCC1CC(c1nc3c(-c4ccc(-c5ccccc5)nc4)cnn3c3[nH]ccc(=O)c13)C2 (stereo not drawn) [Example 2, 5-(8-(4H-1,2,4-triazole-3-carbonyl)-8-azabicyclo[3.2.1]octan-3-yl)-3-(6-phenylpyridin-3-yl)pyrazolo[1,5-a]pyrido[3,2-e]pyrimidin-6(9H)-one] | < 10 |
| Cn1ccc(-c2ccc(-c3cnn4c5c(c(C6CC7CCC(C6)N7C(=O)c6nnc[nH]6)nc34)C(=O)CCN5)cn2)n1 (stereo not drawn) [Example 4] | < 10 |
| COc1ccc(-c2ccc(-c3cnn4c5c(c(C6CC7CCC(C6)N7C(=O)CO)nc34)C(=O)CCN5)cn2)cc1F (stereo not drawn) [Example 6] | < 10 |
| C[C@@H](O)C(=O)N1CCC(c2nc3c(-c4ccc(-c5ccccc5)nc4)cnn3c3c2C(=O)CCN3)CC1 [Example 17] | < 10 |
| CC(CO)(CO)C(=O)N1CCC(c2nc3c(-c4ccc(-c5ccccc5)nc4)cnn3c3c2C(=O)CCN3)CC1 [Example 18] | < 10 |
| O=C1CCNc2c1c(N1CCS(=O)(=O)CC1)nc1c(-c3cnc4ccc(F)cc4c3)cnn21 [Example 21] | < 10 |
| COCCO[C@]1(C(=O)O)CC[C@@H](c2nc3c(-c4cnn(-c5ccccc5)c4)cnn3c3c2C(=O)CCN3)CC1 [Example 25, (1r,4r)-1-(2-methoxyethoxy)-4-(6-oxo-3-(1-phenyl-1H-pyrazol-4-yl)-6,7,8,9-tetrahydropyrazolo[1,5-a]pyrido[3,2-e]pyrimidin-5-yl)cyclohexanecarboxylic acid] | < 10 |
| CC(NC1CCOCC1)c1nc2c(-c3cnc4ccc(F)cc4c3)cnn2c2c1C(=O)CCN2 (stereo not drawn) [Example 28, 3-(6-fluoroquinolin-3-yl)-5-(1-(tetrahydro-2H-pyran-4-ylamino)ethyl)-8,9-dihydropyrazolo[1,5-a]pyrido[3,2-e]pyrimidin-6(7H)-one] | > 100 |
| (1r,4r)-1-(2-methoxyethoxy)-4-(3-(6-(1-methyl-1H-pyrazol-3-yl)pyridin-3-yl)-6-oxo-6,7,8,9-tetrahydropyrazolo[1,5-a]pyrido[3,2-e]pyrimidin-5-yl)cyclohexanecarboxylic acid [Example 26] | < 10 |

Second part, the compound after the results:

| IC50 [nM] | Compound |
| --- | --- |
| < 10 | Cn1ccc(-c2ccc(-c3cnn4c5c(c(C6CC7CCC(C6)N7C(=O)C(C)(CO)CO)nc34)C(=O)CCN5)cn2)n1 (stereo not drawn) [Example 5] |
| < 10 | COc1ccc(-c2ccc(-c3cnn4c5c(c(C6CC7CCC(C6)N7C(=O)C(C)(CO)CO)nc34)C(=O)CCN5)cn2)cc1F (stereo not drawn) [Example 8] |
| < 10 | O=C1CCNc2c1c(C1CC3CCC(C1)N3C(=O)c1nnc[nH]1)nc1c(-c3ccc(-c4ccccn4)nc3)cnn21 (stereo not drawn) [Example 12] |
| < 10 | O=C1CCNc2c1c(C1CCN(C(=O)c3nnc[nH]3)CC1)nc1c(-c3ccc(-c4ccccc4)nc3)cnn21 [Example 15, 5-(1-(4H-1,2,4-triazole-3-carbonyl)piperidin-4-yl)-3-(6-phenylpyridin-3-yl)-8,9-dihydropyrazolo[1,5-a]pyrido[3,2-e]pyrimidin-6(7H)-one] |
| < 10 | O=C1CCNc2c1c(C1CCN(C(=O)CO)CC1)nc1c(-c3ccc(-c4ccccc4)nc3)cnn21 [Example 16] |
| 10 to 100 | O=C1CCNc2c1c(N1CCOCC1)nc1c(-c3cnc4ccccc4c3)cnn21 [Example 19, 5-morpholino-3-(quinolin-3-yl)-8,9-dihydropyrazolo[1,5-a]pyrido[3,2-e]pyrimidin-6(7H)-one] |
| 10 to 100 | C[C@@H]1CN(c2nc3c(-c4ccc(-c5ccccc5)nc4)cnn3c3c2C(=O)CCN3)C[C@H](C)O1 [Example 20, 5-((2R,6S)-2,6-dimethylmorpholino)-3-(6-phenylpyridin-3-yl)-8,9-dihydropyrazolo[1,5-a]pyrido[3,2-e]pyrimidin-6(7H)-one] |
| < 10 | O=C1CCNc2c1c(N1CCS(=O)(=O)CC1)nc1c(-c3ccc(-c4ccccc4)nc3)cnn21 [Example 22] |
| < 10 | O=C1CCNc2c1c(C1CCS(=O)(=O)CC1)nc1c(-c3ccc(-c4ccccc4)nc3)cnn21 [Example 23, 3-(6-phenylpyridin-3-yl)-5-(tetrahydro-1,1-dioxido-2H-thiopyran-4-yl)-8,9-dihydropyrazolo[1,5-a]pyrido[3,2-e]pyrimidin-6(7H)-one] |
| 10 to 100 | O=C1CCNc2c1c(C1CCS(=O)(=O)CC1)nc1c(-c3cnc4ccccc4c3)cnn21 [Example 24, 3-(quinolin-3-yl)-5-(tetrahydro-1,1-dioxido-2H-thiopyran-4-yl)-8,9-dihydropyrazolo[1,5-a]pyrido[3,2-e]pyrimidin-6(7H)-one] |
| < 10 | O=C1CCNc2c1c(C1C[C@H]3COC[C@@H](C1)N3C(=O)c1nc[nH]n1)nc1c(-c3ccc(-c4ccccc4)nc3)cnn21 (stereo partly drawn) [Example 27, 5-((1R,5S)-9-(1H-1,2,4-triazole-3-carbonyl)-3-oxa-9-azabicyclo[3.3.1]nonan-7-yl)-3-(6-phenylpyridin-3-yl)-8,9-dihydropyrazolo[1,5-a]pyrido[3,2-e]pyrimidin-6(7H)-one] |
